# Reference: US20250109165A1, “CYCLOPHILIN INHIBITORS AND USES THEREOF” (The Broad Institute, Inc., priority 2022, published 2025)
# Entries after “also recorded” stand apart in the source; their conditions may differ.
# Experiments:
# cyclophilins [1] = assay: Prolyl-isomerase inhibition screen on cyclophilins and cyclophilin mutants; type: biochemical, human
# Experimental: (§1) IC50 values were calculated to be the value at which 50% inhibition was achieved on each compound's non-linear regression fitted curve.
# cyclophilins [2] = assay: Anisotropy binding assay of fluorescein-labeled macrocycles; parameters: species or system human; conditions: 0.5 nM fluorescein-labeled macrocycle
# Experimental: Final assay volume was 100 μL with 0.25% DMSO. Fluorescence anisotropy was then measured using a Tecan Spark® plate reader using 492 nm/523 nm excitation/emission settings.
# [3] = test system: mPTP opening in isolated mouse liver mitochondria; assay: Mitochondrial calcium retention capacity assay; type: cell-based; conditions: 2 μM CsA, 10 μM B52-Cy5, 10 μM *B52-Cy5, 20 μM B53-Cy5, 20 μM *B53-Cy5; pulses of 60 μM CaCl2; compared to DMSO control
# Experimental: Isolation of mouse liver mitochondria: All procedures used in animal studies were approved by the Institutional Animal Care and Use Committee at Massachusetts General Hospital. Female C57B1/6 J mice (Jackson Labs) age 10-12 weeks were anesthetized by isoflurane. The liver from one mouse was rinsed in ice-cold PBS, minced in ice-cold isolation buffer containing 0.28 M sucrose, 10 mM Hepes-KOH pH 7.2, 0.2 mM EDTA and 1% (w/v) BSA, gently homogenized with 4 strokes of a tight-fitting Teflon pestle at 1000 rpm, and then centrifuged for 10 minutes at 600 g at 4° C. The supernatant was recovered and centrifuged for 10 minutes at 8000 g at 4° C. The loose outer buffy coat was rinsed off and the pellet resuspended gently in isolation buffer and the spins were repeated. […] The suspension was kept on ice and all assays performed within 4-6 hours following isolation. Quality control was done with every preparation by adding 250 mcg mitochondria to 500 μl of assay buffer containing 137 mM KCl, 10 mM Hepes-KOH pH 7.2, 2.5 mM MgCl2, 5 mM each of glutamate and malate, and 3 mM KH2PO4. Sequential 150 μM ADP pulses were then delivered. Preparations with respiratory control ratio>6 (as assessed by the ratio of ADP-coupled state 3 respiration to state 4 respiration) were used for further experiments. Measurements were made in a custom-built fluorimeter using a cuvette with a Red Eye oxygen patch (Ocean Optics) and an optical probe that is connected to the fluorimeter.
# Mitochondrial calcium retention capacity assays: 250 mcg of mouse liver mitochondria isolated as above were added to […] of assay buffer containing 125 mM KCl, 20 mM Hepes-KOH pH 7.2, 1 mM MgCl2, 5 mM each of glutamate and malate, and 3 mM KH2PO4. 0.5 μM Calcium Green-5N (Molecular Probes) was included to monitor extramitochondrial free Ca^2+. Fluorescence was continuously monitored in the custom-built fluorimeter described above, with excitation 470 nm and emission […]. Sequential 60 μM CaCl2) pulses were delivered until Ca^2+ uptake ceased and an abrupt release of previously taken up Ca^2+ was observed, consistent with mPTP opening. The calcium retention capacity ratio (CRC) was obtained by normalizing the number of Ca^2+ pulses that could be taken up in a given condition by that taken up under DMSO control conditions, as previously described^72.
# HeLa cells = assay: Fluorescence microscopy on HeLa cells; type: cell-based, human; conditions: Cy5 labeled compound 6 μM
# Experimental: Fluorescence microscopy on Hela cells. Into 96 well black, clear bottom TC treated plates, cells were seeded in Dulbecco's Modified Eagle Medium (DMEM) supplemented with 10% fetal bovine serum 24 hours prior at a density where wells were ˜80% confluent at time of experiment. Media was removed and cells were then stained with 50 μL of mixture containing Cy5 labeled compound (6 μM) in Kreb's ringer solution HEPES buffered pH 7.2 (KRB), for 1 hour at 37° C. Then, 50 μL Hoechst 33342 (8 μM) and Mitotracker Green FM (0.1 μM) in KRB was added directly to wells containing cells and incubated for 15 minutes at 37° C. Media was removed and cells were washed two times with 100 μL KRB. Cells were then kept adherent to the wells in 100 μL KRB for imaging. Fluorescence microscopy was conducted on an Opera Phenix Plus High-Content Screening System, using Alexa 488, Alexa 647, and Hoescht 33342 channels. Images were analyzed using Harmony 4.9.
# CypE [4] = biological target: T1, CypE (Homo sapiens, UniProt Q9UNP9); assay: Chymotrypsin coupled prolyl-isomerase assay; type: biochemical; conditions: for IC50: wild-type CypE, read-out: IC50^CypE
# T1 construct: PPIE (UniProtKB Entry Q9UNP9: res 131-301); host or cells: E. coli BL21(DE3)
# T1 sequence (Q9UNP9 131-301): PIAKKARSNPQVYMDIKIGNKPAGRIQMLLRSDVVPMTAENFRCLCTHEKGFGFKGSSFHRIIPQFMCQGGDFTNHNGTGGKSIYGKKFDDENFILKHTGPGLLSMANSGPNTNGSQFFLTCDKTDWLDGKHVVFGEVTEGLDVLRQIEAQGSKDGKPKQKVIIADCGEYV
# Experimental: as §1
# CypE [5] = biological target: T1, CypE; assay: Competition anisotropy (fluorescence polarization) binding assay with A26-Fl; conditions: for CypE binding in FP competition (in words): compared to C3A
# Experimental: Competition anisotropy binding assay with A26-Fl: Adapted from previous work^54, into a flat-bottom black untreated 96 well plate (Corning), cyclophilin in assay buffer (25 mM HEPES pH 8.0, 100 mM NaCl, 0.01% Triton X-100) at a predetermined concentration from FIG. 27 was incubated with 0.5 nM A26-Fl for 10 minutes at room temperature. Competitor macrocycle was then added to each well and incubated for 24 hours. Final assay volume was 100 μL with 0.25% DMSO. Fluorescence anisotropy was then measured using a Tecan Spark® plate reader using 492 nm/523 nm excitation/emission settings. Raw fluorescence polarization data was normalized to protein+fluorescent probe and buffer+fluorescent probe and Ki values were calculated using one site-competitive binding equation with Prism 9, importing Kd values from A26-Fl (FIGS. 12A-12C).
# CypD = biological target: T2, CypD (Homo sapiens, UniProt P30405); assay: Chymotrypsin coupled prolyl-isomerase assay; type: biochemical
# T2 construct: PPIF (UniProtKB Entry P30405: res 45-207); made in house; host or cells: E. coli BL21(DE3)
# T2 sequence (P30405 45-207): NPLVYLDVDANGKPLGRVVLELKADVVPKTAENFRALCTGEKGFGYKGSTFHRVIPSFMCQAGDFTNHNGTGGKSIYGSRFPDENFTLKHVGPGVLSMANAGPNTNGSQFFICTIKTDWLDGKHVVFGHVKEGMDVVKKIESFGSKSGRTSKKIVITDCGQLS
# Experimental: as §1
smiles,measurement,setting,value
NC(=O)[C@H]1CCNC(=O)/C=C/C(=O)N2CCC[C@](Cc3ccccc3)(C2)C(=O)N[C@H](Cc2ccc(-c3ccc(CC(C(=O)O)C(=O)O)cc3)cc2)C(=O)NCc2ccccc2CC(=O)N1 [*B52-A],inhibition of cyclophilins tested (in words),cyclophilins [1],no substantial inhibition activity; also recorded: did not inhibit any cyclophilin
NC(=O)[C@H]1CCNC(=O)/C=C/C(=O)N2CCC[C@](Cc3ccccc3)(C2)C(=O)N[C@H](Cc2ccc(-c3ccc(C(CC(=O)O)CC(=O)O)cc3)cc2)C(=O)NCc2ccccc2CC(=O)N1 [*B53-A],inhibition of cyclophilins tested (in words),cyclophilins [1],no substantial inhibition activity; also recorded: did not inhibit any cyclophilin
O=C1/C=C/C(=O)N2CCC[C@](Cc3ccccc3)(C2)C(=O)N[C@@H](Cc2ccco2)C(=O)NCc2ccccc2CC(=O)N[C@H](C(=O)NCCCOCCOCCOCCCNC(=O)c2ccc3c(c2)C(=O)OC32c3ccc(O)cc3Oc3cc(O)ccc32)CCN1 [Compound A26-Fl],"binding to five non-prolyl isomerase active cyclophilins (PPIL2, PPIL3, PPIL4, PPIL6, SDCCAG-10)",cyclophilins [2],very weak or no binding
same,binding to prolyl-isomerase-active cyclophilins (in words),cyclophilins [2],promiscuously binds
NCCOCCNC(=O)[C@@H]1CCNC(=O)/C=C/C(=O)N2CCC[C@](Cc3ccccc3)(C2)C(=O)N[C@@H](Cc2ccc(-c3ccccc3)cc2)C(=O)NCc2ccccc2CC(=O)N1 [Compound B2],cyclophilin selectivity profile (in words),cyclophilins [1],selectivity over cyclophilins with sterically occluded S2 pockets
NCCOCCNC(=O)[C@@H]1CCNC(=O)/C=C/C(=O)N2CCC[C@](Cc3ccccc3)(C2)C(=O)N[C@@H](Cc2ccc(-c3ccc(CCC(=O)O)cc3)cc2)C(=O)NCc2ccccc2CC(=O)N1 [Compound B23],cyclophilin selectivity profile (in words),cyclophilins [1],"selectivity over non-lysine-containing PPIL1, Cyp40, CypC, and PPWD1"
NCCOCCNC(=O)[C@@H]1CCNC(=O)/C=C/C(=O)N2CCC[C@](Cc3ccccc3)(C2)C(=O)N[C@@H](Cc2ccc(-c3ccc(C#CC(=O)O)cc3)cc2)C(=O)NCc2ccccc2CC(=O)N1 [Compound B25],cyclophilin selectivity profile (in words),cyclophilins [1],"selectivity over non-lysine-containing PPIL1, Cyp40, CypC, and PPWD1"
N#CCc1ccc(-c2ccc(C[C@@H]3NC(=O)[C@]4(Cc5ccccc5)CCCN(C4)C(=O)/C=C/C(=O)NCC[C@@H](C(=O)NCCOCCN)NC(=O)Cc4ccccc4CNC3=O)cc2)cc1C(=O)O [Compound B51],cyclophilin selectivity profile (in words),cyclophilins [1],hampers the selectivity
same,inhibition of cyclophilins tested (in words),cyclophilins [1],loss of potency
NC(=O)[C@@H]1CCNC(=O)/C=C/C(=O)N2CCC[C@](Cc3ccccc3)(C2)C(=O)N[C@@H](Cc2ccc(-c3ccc(CC(C(=O)O)C(=O)O)cc3)cc2)C(=O)NCc2ccccc2CC(=O)N1 [Compound B52-A],cyclophilin selectivity profile (in words),cyclophilins [1],retain the same selectivity profile
CN1/C(=C/C=C/C=C/C2=[N+](CCCCCC(=O)NCCNC(=O)[C@@H]3CCNC(=O)/C=C/C(=O)N4CCC[C@](Cc5ccccc5)(C4)C(=O)N[C@@H](Cc4ccc(-c5ccc(CC(C(=O)O)C(=O)O)cc5)cc4)C(=O)NCc4ccccc4CC(=O)N3)c3ccccc3C2(C)C)C(C)(C)c2ccccc21 [Compound B52-Cy5],cyclophilin selectivity profile (in words),cyclophilins [1],retain the same selectivity profile
same,calcium retention capacity prior to mPTP opening,[3],increased calcium retention capacity
same,mitochondrial localization (overlap with Mitotracker Green),HeLa cells,poor mitochondrial localization and fluorescence
same,plasma membrane / mammalian cell permeability,HeLa cells,not observed
O=C1/C=C/C(=O)N2CCC[C@](Cc3ccccc3)(C2)C(=O)N[C@@H](Cc2ccc(-c3ccc(CC(C(=O)O)C(=O)O)cc3)cc2)C(=O)NCc2ccccc2CC(=O)N[C@H](C(=O)NCCCOCCOCCOCCCNC(=O)c2ccc3c(c2)C(=O)OC32c3ccc(O)cc3Oc3cc(O)ccc32)CCN1 [Compound B52-Fl],"binding to five non-prolyl isomerase active cyclophilins (PPIL2, PPIL3, PPIL4, PPIL6, SDCCAG-10)",cyclophilins [2],very weak or no binding
same,binding to prolyl-isomerase-active cyclophilins (in words),cyclophilins [2],selective binding for CypD
NC(=O)[C@@H]1CCNC(=O)/C=C/C(=O)N2CCC[C@](Cc3ccccc3)(C2)C(=O)N[C@@H](Cc2ccc(-c3ccc(C(CC(=O)O)CC(=O)O)cc3)cc2)C(=O)NCc2ccccc2CC(=O)N1 [Compound B53-A],cyclophilin selectivity profile (in words),cyclophilins [1],retain the same selectivity profile
CN1/C(=C/C=C/C=C/C2=[N+](CCCCCC(=O)NCCNC(=O)[C@@H]3CCNC(=O)/C=C/C(=O)N4CCC[C@](Cc5ccccc5)(C4)C(=O)N[C@@H](Cc4ccc(-c5ccc(C(CC(=O)O)CC(=O)O)cc5)cc4)C(=O)NCc4ccccc4CC(=O)N3)c3ccccc3C2(C)C)C(C)(C)c2ccccc21 [Compound B53-Cy5],cyclophilin selectivity profile (in words),cyclophilins [1],retain the same selectivity profile
same,calcium retention capacity prior to mPTP opening,[3],increased calcium retention capacity
same,mitochondrial localization (overlap with Mitotracker Green),HeLa cells,poor mitochondrial localization and fluorescence
same,plasma membrane / mammalian cell permeability,HeLa cells,not observed
O=C(O)CC(CC(=O)O)c1ccc(-c2ccc(C[C@@H]3NC(=O)[C@]4(Cc5ccccc5)CCCN(C4)C(=O)/C=C/C(=O)NCC[C@@H](C(=O)NCCCOCCOCCOCCCNC(=O)c4ccc5c(c4)C(=O)OC54c5ccc(O)cc5Oc5cc(O)ccc54)NC(=O)Cc4ccccc4CNC3=O)cc2)cc1 [Compound B53-Fl],"binding to five non-prolyl isomerase active cyclophilins (PPIL2, PPIL3, PPIL4, PPIL6, SDCCAG-10)",cyclophilins [2],very weak or no binding
same,binding to prolyl-isomerase-active cyclophilins (in words),cyclophilins [2],selective binding for CypD
CC(=O)c1ccc(-c2ccc(C[C@@H]3NC(=O)[C@]4(Cc5ccccc5)CCCN(C4)C(=O)/C=C/C(=O)NCC[C@@H](C(N)=O)NC(=O)Cc4ccccc4CNC3=O)cc2)cc1B(O)O [Compound C1A],CypE potency and selectivity in prolyl isomerase assay (in words),CypE [4],loss of potency and selectivity for CypE
same,IC50,CypE [4],0.9 µM
same,CypE binding in FP competition (in words),CypE [5],attenuated binding to CypE; also recorded: decreased potency for CypE
CC(=O)c1cc(-c2ccc(C[C@@H]3NC(=O)[C@]4(Cc5ccccc5)CCCN(C4)C(=O)/C=C/C(=O)NCC[C@@H](C(N)=O)NC(=O)Cc4ccccc4CNC3=O)cc2)ccc1B(O)O [Compound C2A],CypE binding in FP competition (in words),CypE [5],attenuated binding to CypE; also recorded: decreased potency for CypE
NC(=O)[C@@H]1CCNC(=O)/C=C/C(=O)N2CCC[C@](Cc3ccccc3)(C2)C(=O)N[C@@H](Cc2ccc(-c3cccc(B(O)O)c3)cc2)C(=O)NCc2ccccc2CC(=O)N1 [Compound C6A],IC50,CypE [4],4 µM
same,decrease in potency relative to C3A,CypE [5]; FP competition with A26-Fl against CypE,100 fold
same,CypE binding in FP competition (in words),CypE [5],attenuated inhibition of CypE
"CC(=O)NCCNC(=O)CCCCCN1\C(=C/C=C/C=C/C2=[N+](C)c3ccccc3C2(C)C)C(C)(C)c2ccccc21 [Cy5-enAc, reference compound]",CypD prolyl-isomerase inhibition (in words),CypD,does not inhibit CypD
same,mitochondrial localization (overlap with Mitotracker Green),HeLa cells,good mitochondrial localization
